US20180333382A1, “PHARMACEUTICAL COMPOSITIONS COMPRISING DGLA AND USE OF SAME” (DS Biopharma Limited, priority 2017, published 2018)
Values joined by “and” are separate entries in the source; they are usually repeats but may differ in a detail not shown here. Equal values may be shown once.

System: spontaneous hypertensive rats
Test: Arterial pressure and phenylephrine-induced hypertensive response after seven days of gavage (DGLA, aspirin, DGLA + aspirin)
Type: in vivo, rat
Settings: for Mean arterial pressure at baseline, Average SAP / Mean arterial pressure with an intravenous dose of Phenylephrine 20 μg/kg, Average SAP / Mean arterial pressure at baseline, individual rats / Mean arterial pressure with an intravenous dose of Phenylephrine 20 μg/kg, individual rats: seven consecutive days of gavage; for Mean arterial pressure at baseline, individual rats / Mean arterial pressure with an intravenous dose of Phenylephrine 20 μg/kg, individual rats: Rat #1-#5; for Arterial pressure, Diastol / Arterial pressure, Systol / Mean systemic arterial pressure: seven days of gavage, before phenylephrine
Method: An in vivo investigation of anti-hypertension efficacy following co-administration of DGLA and aspirin in spontaneous hypertensive rats was conducted. This experiment investigated the efficacy of DGLA when co-administered chronically with aspirin to reduce the hypertensive response induced acutely by phenylephrine in spontaneous hypertensive rats. Spontaneously hypertensive adult male rats (250-300 g), bred by Charles River Laboratories, were used for this assay. The animals were identified upon arrival as per CCPA guidelines. The animals were pair-housed by group (low dose+aspirin, high dose+aspirin or aspirin alone) for the duration of the oral gavage prior to surgery. All animal care and vivarium maintenance was recorded, with documents kept at the test facility.
The concentrations of DGLA to be tested (50 and 500 mg/kg) as well as the concentration of aspirin (10 mg/kg) were selected by the Sponsor based on information available at the time of design of this study. They were selected to cover a range of concentrations useful for the identification of the mechanism of action of the test article.
All solution preparations were documented on a Solution Contents Form, defining labelling information and all relevant information on reagents: batch number, storage conditions, contents, and preparation/expiry dates.
The test article was formulated using olive oil as the vehicle. This stock solution was then administered by oral gavage once per day for seven consecutive days. A low and a high dose (50 mg/kg and 500 mg/kg) were tested.
A 5 mg/ml stock solution of aspirin was prepared by dissolving the appropriate amount of aspirin in 100% DMSO which was then diluted in water. The concentration of DMSO was less than 1%. The appropriate volume was administered by oral gavage to each animal once per day for seven consecutive days. The stock solution was stored at room temperature and was considered stable for the duration of the gavage.
The appropriate volume was administered to each animal by an intravenous injection at the end of the experiment on the surgery day. The stock solution was stored at 4° C. and was considered stable for the duration of the experiment.
A stock solution of phenylephrine of 1 mg/ml were prepared in PBS (pH=7.4±0.05). The stock solution was stored at 4° C. The expiration date was set at 14 days after preparation.
Male spontaneous hypertensive rats weighing approximately 300 g arrived at the facility at least two days before beginning the oral gavage. Animals were assigned to one of three groups (low dose+aspirin, high dose+aspirin, and aspirin), and were pair-housed during the acclimation period. Each group (n=4) received the appropriate compound by oral gavage using a 16 G feeding needle. The stock solution was administered once per day for seven consecutive days. On the seventh day of administration, the animals underwent surgery and hypertensive monitoring.
Rats were anesthetized with a 2.5-3.0% isoflurane-O2 mixture in an induction box. When the animals were removed from the induction box, they were connected onto a nose cone to maintain anesthesia during the tracheotomy. The animals were tracheotomised with an endotracheal tube (7 cm length from connector to the tip made with a PE205 tube from BD and a 16 G needle) to facilitate spontaneous breathing, stabilize hemodynamics, and to keep the rat under anesthesia with an isoflurane-O2 mixture. Two catheters were inserted: one in the right femoral artery for systemic arterial pressure (SAP) measurement, and one in the right femoral vein for delivery of the hypertensor and positive control. ECG signals were acquired with ECG contacts placed in a Lead-1 configuration on the anaesthetized animal, and a pulse oxymeter was attached to the animal's hind paw to enable continuous monitoring of the general condition of the rat during the surgical procedure.

Compound: CCCCC/C=C\C/C=C\C/C=C\CCCCCCC(=O)O [DS107G, Dihomo gamma linolenic acid]
- Mean arterial pressure at baseline, Average SAP (DGLA 50 mg/kg): 74.5 mm of Hg
- Mean arterial pressure with an intravenous dose of Phenylephrine 20 μg/kg, Average SAP (DGLA 50 mg/kg): 115.7 mm of Hg
- Mean arterial pressure at baseline, individual rats (DGLA 50 mg/kg): 51.77 mm of Hg and 87.81 mm of Hg and 62.11 mm of Hg and 86.01 mm of Hg and 84.93 mm of Hg
- Mean arterial pressure with an intravenous dose of Phenylephrine 20 μg/kg, individual rats (DGLA 50 mg/kg): 91.82 mm of Hg and 137.84 mm of Hg and 105.44 mm of Hg and 132.68 mm of Hg and 110.72 mm of Hg
- Arterial pressure, Diastol (DGLA 50 mg/kg): 75 mmHg
- Arterial pressure, Systol (DGLA 50 mg/kg): 120 mmHg
- Mean systemic arterial pressure (DGLA 50 mg/kg): 90 mmHg
- Mean arterial pressure at baseline, Average SAP (DGLA 500 mg/kg): 82.2 mm of Hg
- Mean arterial pressure with an intravenous dose of Phenylephrine 20 μg/kg, Average SAP (DGLA 500 mg/kg): 112.1 mm of Hg
- Mean arterial pressure at baseline, individual rats (DGLA 500 mg/kg): 64.81 mm of Hg and 91.55 mm of Hg and 94.41 mm of Hg and 66.56 mm of Hg and 93.64 mm of Hg
- Mean arterial pressure with an intravenous dose of Phenylephrine 20 μg/kg, individual rats (DGLA 500 mg/kg): 105.21 mm of Hg and 119.33 mm of Hg and 118.12 mm of Hg and 97.17 mm of Hg and 120.82 mm of Hg
- Arterial pressure, Diastol (DGLA 500 mg/kg): 80 mmHg
- Arterial pressure, Systol (DGLA 500 mg/kg): 135 mmHg
- Mean systemic arterial pressure (DGLA 500 mg/kg): 98 mmHg
- effect on arterial pressure in spontaneously hypertensive rats (DGLA 50 or 500 mg/kg alone, effect eliminated by aspirin): successfully decreases the arterial pressure
- lowering of the mean systemic arterial blood pressure (spontaneous hypertensive rats treated with DGLA alone, observed previously): up to 25%
